Data from BindingDB's records for doi:10.1021/acs.jmedchem.5b01170 (University of Arizona, 2015).

Biological target: Delta-type opioid receptor (Mus musculus, UniProt P32300)
Assay: Agonist activity at delta opioid receptor in ICR mouse isolated vas deferens assessed as inhibition of electrically-stimulated muscle contraction

Delta-type opioid receptor, sequence (P32300 whole entry): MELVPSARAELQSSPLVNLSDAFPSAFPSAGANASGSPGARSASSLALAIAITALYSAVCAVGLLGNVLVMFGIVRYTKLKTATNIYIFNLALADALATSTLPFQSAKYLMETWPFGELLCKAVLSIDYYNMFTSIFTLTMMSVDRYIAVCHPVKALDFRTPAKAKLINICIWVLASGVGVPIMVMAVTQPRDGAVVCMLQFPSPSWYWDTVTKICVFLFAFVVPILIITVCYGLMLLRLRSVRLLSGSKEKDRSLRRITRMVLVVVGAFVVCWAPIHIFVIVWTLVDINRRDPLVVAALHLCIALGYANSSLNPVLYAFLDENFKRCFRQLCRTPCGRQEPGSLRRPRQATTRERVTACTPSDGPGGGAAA

SMILES: CC(C)C[C@H](NC(=O)[C@@H]1CCCN1C(=O)[C@H](Cc1ccc(F)cc1)NC(=O)CNC(=O)[C@@H](C)NC(=O)[C@@H](N)Cc1ccc(O)cc1)C(=O)N[C@@H](Cc1c[nH]c2ccccc12)C(=O)NCc1cc(C(F)(F)F)cc(C(F)(F)F)c1
- IC50: 12 nM
